Reference: ChEMBL document CHEMBL5550083, “Structural optimization of a lysine demethylase 5 inhibitor for improvement of its cellular activity” (Bioorg Med Chem, 2024)
pIC50: −log10 of the molar value. The source made the active and inactive calls. The calls are words filed in the database; no cut-off is given here.

Tests used:
[1] = biological target: T1, Lysine-specific demethylase 5B (Homo sapiens, UniProt Q9UGL1); test: Inhibition of KDM5B (unknown origin) at 10 nM incubated for 2 hrs by Alphascreen assay
T1 sequence (Q9UGL1 whole entry): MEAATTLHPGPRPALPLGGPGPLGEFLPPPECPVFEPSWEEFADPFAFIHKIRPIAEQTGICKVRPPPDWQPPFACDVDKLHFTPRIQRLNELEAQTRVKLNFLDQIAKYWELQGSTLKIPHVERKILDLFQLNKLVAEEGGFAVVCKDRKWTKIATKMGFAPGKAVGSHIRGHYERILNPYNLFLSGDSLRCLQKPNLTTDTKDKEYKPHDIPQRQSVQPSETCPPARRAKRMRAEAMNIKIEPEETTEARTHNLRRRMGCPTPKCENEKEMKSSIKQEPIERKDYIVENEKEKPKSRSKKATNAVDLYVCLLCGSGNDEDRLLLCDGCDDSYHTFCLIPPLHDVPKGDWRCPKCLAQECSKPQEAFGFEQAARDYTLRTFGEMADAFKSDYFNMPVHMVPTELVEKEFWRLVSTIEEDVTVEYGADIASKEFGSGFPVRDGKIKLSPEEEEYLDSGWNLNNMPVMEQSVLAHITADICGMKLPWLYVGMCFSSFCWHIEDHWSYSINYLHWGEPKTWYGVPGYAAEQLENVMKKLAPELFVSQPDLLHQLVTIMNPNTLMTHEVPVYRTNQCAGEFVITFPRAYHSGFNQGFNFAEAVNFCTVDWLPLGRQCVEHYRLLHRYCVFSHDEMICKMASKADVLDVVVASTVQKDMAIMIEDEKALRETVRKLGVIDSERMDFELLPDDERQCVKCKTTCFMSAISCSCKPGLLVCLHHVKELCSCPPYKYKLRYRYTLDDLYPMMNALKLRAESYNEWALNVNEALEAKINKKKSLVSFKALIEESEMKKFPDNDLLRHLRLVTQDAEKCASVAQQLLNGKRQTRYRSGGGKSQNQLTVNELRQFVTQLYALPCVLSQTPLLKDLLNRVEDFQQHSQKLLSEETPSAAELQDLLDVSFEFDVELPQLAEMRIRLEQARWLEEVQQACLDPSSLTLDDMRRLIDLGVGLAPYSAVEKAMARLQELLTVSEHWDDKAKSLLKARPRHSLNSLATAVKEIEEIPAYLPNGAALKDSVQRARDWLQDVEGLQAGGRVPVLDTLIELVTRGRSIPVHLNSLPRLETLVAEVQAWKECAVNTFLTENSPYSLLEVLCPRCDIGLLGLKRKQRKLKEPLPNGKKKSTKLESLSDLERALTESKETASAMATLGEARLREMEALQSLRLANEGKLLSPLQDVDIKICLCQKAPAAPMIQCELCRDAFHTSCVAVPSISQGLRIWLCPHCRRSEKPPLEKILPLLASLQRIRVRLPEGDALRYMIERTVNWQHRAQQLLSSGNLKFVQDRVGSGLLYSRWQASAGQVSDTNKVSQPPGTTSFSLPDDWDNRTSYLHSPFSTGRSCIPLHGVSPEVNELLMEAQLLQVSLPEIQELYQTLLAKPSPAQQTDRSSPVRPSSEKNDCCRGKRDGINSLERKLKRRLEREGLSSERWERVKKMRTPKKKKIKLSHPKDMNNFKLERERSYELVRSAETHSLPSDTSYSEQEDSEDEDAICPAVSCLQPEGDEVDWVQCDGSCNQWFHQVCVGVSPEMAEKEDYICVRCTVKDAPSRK

[2] = biological target: T1, Lysine-specific demethylase 5B; test: Inhibition of KDM5B (unknown origin) incubated for 2 hrs by Alphascreen assay
A549 [3] = test: Inhibition of KDM4 in human A549 cells assessed as increase in H3K9me3 level at 100 to 400 nM incubated for 18 hrs by Western blot analysis; format: cell-based; conditions: dose 100-400 nM
A549 [4] = test: Inhibition of KDM5 in human A549 cells assessed as increase in H3K4me3 level at 400 nM by Western blot analysis; format: cell-based; conditions: time 1-18 hrs, TDE = time-dependent effect
A549 [5] = test: Inhibition of KDM5 in human A549 cells assessed as increase in H3K4me3 level incubated for 18 hrs by Western blot analysis; format: cell-based; conditions: dose 100-400 nM
[6] = Lipophilicity, log D of the compound in PBS at 100 uM at pH 7.4 incubated for 20 mins by UPLC analysis; format: physicochemical
A549 [7] = test: Inhibition of KDM6 in human A549 cells assessed as increase in H3K27me3 level at 100 to 400 nM incubated for 18 hrs by Western blot analysis; format: cell-based; conditions: dose 100-400 nM
[8] = Apparent permeability of the compound at 100 uM incubated for 4 hrs by PAMPA assay; format: ADME
A549 [9] = test: Inhibition of KDM5 in human A549 cells assessed as increase in H3K4me3 level at 400 nM incubated for 18 hrs by Western blot analysis; format: cell-based
[10] = biological target: Lysine-specific demethylase 6B (Homo sapiens, UniProt O15054); test: Inhibition of KDM6B (unknown origin) incubated for 2 hrs by Alphascreen assay
Sequence of Lysine-specific demethylase 6B (O15054 whole entry): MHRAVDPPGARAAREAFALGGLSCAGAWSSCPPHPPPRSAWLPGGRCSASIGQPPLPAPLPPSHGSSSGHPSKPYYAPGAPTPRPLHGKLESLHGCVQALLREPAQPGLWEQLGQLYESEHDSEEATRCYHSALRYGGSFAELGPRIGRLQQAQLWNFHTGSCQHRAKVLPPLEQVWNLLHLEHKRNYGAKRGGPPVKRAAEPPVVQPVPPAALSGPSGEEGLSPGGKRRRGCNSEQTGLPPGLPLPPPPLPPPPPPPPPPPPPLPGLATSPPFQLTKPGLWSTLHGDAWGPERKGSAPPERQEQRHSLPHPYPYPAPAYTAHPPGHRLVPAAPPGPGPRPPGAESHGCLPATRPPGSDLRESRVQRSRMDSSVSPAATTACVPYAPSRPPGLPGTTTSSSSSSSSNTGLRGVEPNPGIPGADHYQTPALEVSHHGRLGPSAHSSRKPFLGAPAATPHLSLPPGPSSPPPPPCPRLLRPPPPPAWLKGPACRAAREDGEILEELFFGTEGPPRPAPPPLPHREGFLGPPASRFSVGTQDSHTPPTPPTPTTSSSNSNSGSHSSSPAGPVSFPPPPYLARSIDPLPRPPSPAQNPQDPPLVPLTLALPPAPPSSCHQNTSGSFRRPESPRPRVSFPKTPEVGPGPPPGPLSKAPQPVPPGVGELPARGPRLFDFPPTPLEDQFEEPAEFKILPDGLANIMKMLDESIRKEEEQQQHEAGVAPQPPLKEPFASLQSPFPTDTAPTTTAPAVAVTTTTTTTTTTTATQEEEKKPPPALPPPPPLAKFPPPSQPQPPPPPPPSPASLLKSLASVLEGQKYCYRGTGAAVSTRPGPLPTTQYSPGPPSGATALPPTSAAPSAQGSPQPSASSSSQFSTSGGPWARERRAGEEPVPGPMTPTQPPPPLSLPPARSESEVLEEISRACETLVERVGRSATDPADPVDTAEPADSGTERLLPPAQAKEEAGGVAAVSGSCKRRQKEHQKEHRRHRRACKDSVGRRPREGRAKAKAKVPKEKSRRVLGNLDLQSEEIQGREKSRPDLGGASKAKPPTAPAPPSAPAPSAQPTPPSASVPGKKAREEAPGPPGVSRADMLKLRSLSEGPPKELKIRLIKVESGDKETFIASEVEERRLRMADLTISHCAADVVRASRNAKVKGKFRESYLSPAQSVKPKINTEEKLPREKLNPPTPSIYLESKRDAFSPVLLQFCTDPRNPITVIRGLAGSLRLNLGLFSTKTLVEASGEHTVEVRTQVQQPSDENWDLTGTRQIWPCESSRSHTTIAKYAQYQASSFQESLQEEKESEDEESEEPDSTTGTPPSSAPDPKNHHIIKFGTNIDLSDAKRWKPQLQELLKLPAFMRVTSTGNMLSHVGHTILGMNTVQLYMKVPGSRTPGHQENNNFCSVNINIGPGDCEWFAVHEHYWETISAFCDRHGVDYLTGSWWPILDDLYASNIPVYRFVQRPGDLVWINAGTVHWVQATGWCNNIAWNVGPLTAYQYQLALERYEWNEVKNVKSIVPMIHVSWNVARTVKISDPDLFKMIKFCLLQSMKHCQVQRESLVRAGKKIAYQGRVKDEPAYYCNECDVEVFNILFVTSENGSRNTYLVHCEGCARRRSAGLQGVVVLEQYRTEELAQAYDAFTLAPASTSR

[11] = biological target: T2, Lysine-specific demethylase 3A (Homo sapiens, UniProt Q9Y4C1); test: Inhibition of KDM3A (unknown origin) incubated for 2 hrs by Alphascreen assay
T2 sequence (Q9Y4C1 whole entry): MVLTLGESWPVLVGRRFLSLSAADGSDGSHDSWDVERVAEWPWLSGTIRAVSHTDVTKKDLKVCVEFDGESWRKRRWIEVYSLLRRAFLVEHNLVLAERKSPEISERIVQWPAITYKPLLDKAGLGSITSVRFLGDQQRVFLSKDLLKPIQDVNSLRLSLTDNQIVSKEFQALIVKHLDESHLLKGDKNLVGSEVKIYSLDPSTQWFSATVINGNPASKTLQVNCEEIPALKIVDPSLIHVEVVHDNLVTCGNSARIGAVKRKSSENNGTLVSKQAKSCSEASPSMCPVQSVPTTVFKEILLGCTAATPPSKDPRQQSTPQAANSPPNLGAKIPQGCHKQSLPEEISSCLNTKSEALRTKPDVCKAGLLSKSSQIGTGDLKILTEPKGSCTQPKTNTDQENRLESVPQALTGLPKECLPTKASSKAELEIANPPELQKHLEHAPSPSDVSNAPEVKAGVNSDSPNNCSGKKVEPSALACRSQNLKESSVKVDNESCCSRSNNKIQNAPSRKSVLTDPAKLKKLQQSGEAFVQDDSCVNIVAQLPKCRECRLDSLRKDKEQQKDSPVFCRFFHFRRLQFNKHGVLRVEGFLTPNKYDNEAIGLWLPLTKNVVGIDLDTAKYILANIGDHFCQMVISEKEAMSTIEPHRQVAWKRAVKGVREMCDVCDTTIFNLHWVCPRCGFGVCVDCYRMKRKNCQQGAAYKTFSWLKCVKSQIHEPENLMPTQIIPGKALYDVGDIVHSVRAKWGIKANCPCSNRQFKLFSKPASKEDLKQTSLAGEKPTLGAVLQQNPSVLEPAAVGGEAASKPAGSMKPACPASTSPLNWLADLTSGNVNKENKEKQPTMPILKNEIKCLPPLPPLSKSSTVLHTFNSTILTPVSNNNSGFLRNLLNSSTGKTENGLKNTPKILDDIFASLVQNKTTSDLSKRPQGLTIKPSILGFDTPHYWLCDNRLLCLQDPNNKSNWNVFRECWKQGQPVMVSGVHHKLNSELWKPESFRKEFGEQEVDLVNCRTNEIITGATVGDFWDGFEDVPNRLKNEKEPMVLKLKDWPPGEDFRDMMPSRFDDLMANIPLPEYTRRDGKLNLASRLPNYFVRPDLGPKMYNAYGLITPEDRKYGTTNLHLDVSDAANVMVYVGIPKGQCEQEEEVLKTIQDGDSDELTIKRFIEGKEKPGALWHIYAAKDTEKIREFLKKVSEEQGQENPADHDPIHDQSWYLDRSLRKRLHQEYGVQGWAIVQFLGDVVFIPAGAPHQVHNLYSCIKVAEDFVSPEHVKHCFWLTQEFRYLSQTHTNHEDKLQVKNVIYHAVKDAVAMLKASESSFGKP

[12] = biological target: T3, Lysine-specific demethylase 4A (Homo sapiens, UniProt O75164); test: Inhibition of KDM4A (unknown origin) incubated for 2 hrs by Alphascreen assay
T3 sequence (O75164 whole entry): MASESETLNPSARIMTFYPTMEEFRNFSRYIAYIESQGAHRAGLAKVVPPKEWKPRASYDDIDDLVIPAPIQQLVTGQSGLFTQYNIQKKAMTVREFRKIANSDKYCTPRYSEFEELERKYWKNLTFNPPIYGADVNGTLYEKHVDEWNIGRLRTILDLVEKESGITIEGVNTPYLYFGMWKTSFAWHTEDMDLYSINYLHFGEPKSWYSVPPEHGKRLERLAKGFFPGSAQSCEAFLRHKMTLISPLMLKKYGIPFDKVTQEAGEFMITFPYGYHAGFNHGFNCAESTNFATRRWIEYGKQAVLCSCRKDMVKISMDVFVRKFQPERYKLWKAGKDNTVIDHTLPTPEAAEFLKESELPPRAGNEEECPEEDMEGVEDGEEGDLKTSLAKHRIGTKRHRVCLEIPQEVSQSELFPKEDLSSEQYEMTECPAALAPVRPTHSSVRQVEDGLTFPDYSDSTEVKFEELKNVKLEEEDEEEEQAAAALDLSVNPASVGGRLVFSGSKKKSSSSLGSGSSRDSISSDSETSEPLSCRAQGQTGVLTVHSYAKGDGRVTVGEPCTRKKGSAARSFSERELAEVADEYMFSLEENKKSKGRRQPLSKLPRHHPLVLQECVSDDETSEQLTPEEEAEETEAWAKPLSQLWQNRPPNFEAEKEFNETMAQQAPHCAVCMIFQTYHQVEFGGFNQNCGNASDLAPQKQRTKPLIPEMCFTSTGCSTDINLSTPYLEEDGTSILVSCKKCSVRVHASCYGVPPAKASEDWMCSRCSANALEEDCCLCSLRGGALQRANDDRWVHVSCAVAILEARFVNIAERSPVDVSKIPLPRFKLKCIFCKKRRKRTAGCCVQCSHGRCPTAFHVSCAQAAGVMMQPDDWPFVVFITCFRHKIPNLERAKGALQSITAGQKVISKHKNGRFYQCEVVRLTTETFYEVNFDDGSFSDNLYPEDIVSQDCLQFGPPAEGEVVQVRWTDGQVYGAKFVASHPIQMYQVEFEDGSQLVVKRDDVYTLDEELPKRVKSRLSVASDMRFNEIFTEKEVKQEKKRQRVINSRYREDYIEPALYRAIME

[13] = biological target: Lysine-specific demethylase 5A (Homo sapiens, UniProt P29375); test: Inhibition of KDM5A (unknown origin) incubated for 2 hrs by Alphascreen assay
[14] = biological target: Lysine-specific demethylase 5C (Homo sapiens, UniProt P41229); test: Inhibition of KDM5C (unknown origin) incubated for 2 hrs by Alphascreen assay
Sequence of Lysine-specific demethylase 5C (P41229 whole entry): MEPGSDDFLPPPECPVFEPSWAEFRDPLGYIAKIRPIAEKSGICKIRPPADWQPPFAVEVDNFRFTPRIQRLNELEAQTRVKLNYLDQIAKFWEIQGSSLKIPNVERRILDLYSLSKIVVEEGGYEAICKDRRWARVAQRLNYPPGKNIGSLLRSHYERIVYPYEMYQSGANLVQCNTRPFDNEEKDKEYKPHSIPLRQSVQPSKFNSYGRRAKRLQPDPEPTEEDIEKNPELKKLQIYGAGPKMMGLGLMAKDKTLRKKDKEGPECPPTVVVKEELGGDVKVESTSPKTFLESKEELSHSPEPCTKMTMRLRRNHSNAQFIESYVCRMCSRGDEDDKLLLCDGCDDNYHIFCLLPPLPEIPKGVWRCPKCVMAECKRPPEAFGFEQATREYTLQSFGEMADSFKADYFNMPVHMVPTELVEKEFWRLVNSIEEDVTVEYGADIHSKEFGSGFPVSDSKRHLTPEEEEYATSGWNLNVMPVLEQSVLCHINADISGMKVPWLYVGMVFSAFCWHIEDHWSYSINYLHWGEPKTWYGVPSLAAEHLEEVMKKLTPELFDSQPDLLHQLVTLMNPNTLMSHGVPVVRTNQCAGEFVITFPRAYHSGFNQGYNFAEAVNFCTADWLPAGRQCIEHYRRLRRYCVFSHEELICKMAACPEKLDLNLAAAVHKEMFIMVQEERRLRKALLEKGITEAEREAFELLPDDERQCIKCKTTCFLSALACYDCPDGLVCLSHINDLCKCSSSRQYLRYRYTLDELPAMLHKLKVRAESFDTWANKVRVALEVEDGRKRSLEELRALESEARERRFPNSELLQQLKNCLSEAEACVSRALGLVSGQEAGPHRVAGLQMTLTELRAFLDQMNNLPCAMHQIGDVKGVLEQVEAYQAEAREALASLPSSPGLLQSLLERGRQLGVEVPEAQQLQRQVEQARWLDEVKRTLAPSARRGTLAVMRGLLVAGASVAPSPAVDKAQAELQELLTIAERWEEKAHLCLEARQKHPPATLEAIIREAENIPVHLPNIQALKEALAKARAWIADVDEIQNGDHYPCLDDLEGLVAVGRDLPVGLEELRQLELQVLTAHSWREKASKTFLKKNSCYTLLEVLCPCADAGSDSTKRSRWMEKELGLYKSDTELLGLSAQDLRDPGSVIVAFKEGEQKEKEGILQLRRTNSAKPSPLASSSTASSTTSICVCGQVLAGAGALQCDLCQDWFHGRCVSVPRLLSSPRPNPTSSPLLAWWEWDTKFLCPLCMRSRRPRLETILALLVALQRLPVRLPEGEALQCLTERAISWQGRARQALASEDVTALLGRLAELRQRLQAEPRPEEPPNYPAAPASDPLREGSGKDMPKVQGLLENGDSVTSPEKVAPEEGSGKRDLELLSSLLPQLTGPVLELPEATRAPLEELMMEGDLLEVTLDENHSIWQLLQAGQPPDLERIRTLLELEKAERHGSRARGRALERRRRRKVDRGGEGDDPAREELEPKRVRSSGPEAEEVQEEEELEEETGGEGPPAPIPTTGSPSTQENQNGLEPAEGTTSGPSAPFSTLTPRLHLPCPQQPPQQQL

With `CCN(CCN(C)C(C)C)C(=O)CNCc1cc(C(=O)O)ccn1` the inhibition activity call [1] was “Active” and the pIC50 [2] was 8.52.
In the case of `CCCCN(C)CCN(CC)C(=O)CNCc1cc(C(=O)OCC)ccn1`, the inhibition (A549 [3]) was “inactive”, the inhibition (A549 [4]) was “Tde” and the inhibition (A549 [5]) was “Dose-Dependent Effect”. The logD at 20 min, 100 µM [6] was 2.2, the inhibition (A549 [7]) was “inactive” and the Papp at 4 h, 100 µM [8] was 0.6 ×10⁻⁶ cm/s. For the same molecule, the inhibition (A549 [9]) was “Active”.
With `CCCCN(CCCC)CCN(CC)C(=O)CNCc1cc(C(=O)O)ccn1` the inhibition activity call [1] was “Active”.
For `CCN(C)CCN(CC)C(=O)CNCc1cc(C(=O)O)ccn1`, the inhibition activity call [1] was “Active” and the pIC50 [2] was 8.16.
For `CCN(CCN(Cc1ccccc1)Cc1ccccc1)C(=O)CNCc1cc(C(=O)O)ccn1`, the inhibition activity call [1] was “Active”.
For `CCCN(C)CCN(CC)C(=O)CNCc1cc(C(=O)O)ccn1`, the inhibition activity call [1] was “Active” and the pIC50 [2] was 8.20.
With `CCCN(CCC)CCN(CC)C(=O)CNCc1cc(C(=O)O)ccn1` the inhibition activity call [1] was “Active”.
In the case of `CCN(CCN(C)Cc1ccccc1)C(=O)CNCc1cc(C(=O)O)ccn1`, the inhibition activity call [1] was “Active” and the pIC50 [2] was 8.07.
`CCOC(=O)c1ccnc(CNCC(=O)N(CC)CCN(C)C)c1` showed a pIC50 [2] of 6.68, a logD at 20 min, 100 µM [6] of 1.5 and a Papp at 4 h, 100 µM [8] of 0.1 ×10⁻⁶ cm/s.
Work on `CCN(CCN(C)C)C(=O)CNCc1cc(C(=O)O)ccn1` yielded a pIC50 [10] of under 5.30, a pIC50 [11] of under 4.30 and a pIC50 [2] of 8.65. It also gave a pIC50 [12] of 6.76, a pIC50 [13] of 8.85 and a pIC50 [14] of 8.00.
Work on `CCCCN(C)CCN(CC)C(=O)CNCc1cc(C(=O)O)ccn1` yielded a pIC50 [10] of under 5.30, a pIC50 [11] of under 4.30 and a pIC50 [12] of 6.41. It also gave a pIC50 [13] of 8.91 and a pIC50 [14] of 7.87.
In the case of `CC(C)NCC(O)COc1cccc2ccccc12` (stereo not given) [PROPRANOLOL], the Papp at 4 h, 100 µM [8] was 3.9 ×10⁻⁶ cm/s.
For `CCN(CC)CCN(CC)C(=O)CNCc1cc(C(=O)O)ccn1`, the inhibition activity call [1] was “Active”.
For `CCN(CCN(C(C)C)C(C)C)C(=O)CNCc1cc(C(=O)O)ccn1`, the inhibition activity call [1] was “Active”.
